Assay results as given in publication PMC4303209, “A novel phosphatidylinositol 3-kinase (PI3K) inhibitor directs a potent FOXO-dependent, p53-independent cell cycle arrest phenotype characterized by the differential induction of a subset of FOXO-regulated genes” (Breast Cancer Research : BCR, 2014).

System: MCF-7 breast cancer cells
Experiment: Microarray gene expression analysis (Agilent whole human genome 4 x 44K; compound vs DMSO, LIMMA log2 fold change)
Assay type: cell-based

Oc1cccc(-c2nc(N3CCOCC3)c3oc4ncccc4c3n2)c1 [PI-103]
BCL11B log2FC (Apoptosis genes, Gene 64919): 0.237 | MRPL41 log2FC (Apoptosis genes, Gene 64975): -0.467 | PINK1 log2FC (Apoptosis genes, Gene 65018): 1.918 | PRAMEF1 log2FC (Apoptosis genes, Gene 65121): 0.050 | PRAMEF2 log2FC (Apoptosis genes, Gene 65122): 0.021 | UBE2Z log2FC (Apoptosis genes, Gene 65264): -0.420 | TMEM109 log2FC (Apoptosis genes, Gene 79073): -0.554 | CHAC1 log2FC (Apoptosis genes, Gene 79094): 0.106 | TNIP2 log2FC (Apoptosis genes, Gene 79155): -0.233 | PLEKHF1 log2FC (Apoptosis genes, Gene 79156): -0.466 | THOC6 log2FC (Apoptosis genes, Gene 79228): -0.153 | BCL2L14 log2FC (Apoptosis genes, Gene 79370): -0.153 | BIRC7 log2FC (Apoptosis genes, Gene 79444): -0.015 | ELMO3 log2FC (Apoptosis genes, Gene 79767): -0.530 | SLTM log2FC (Apoptosis genes, Gene 79811): 0.713 | ZC3H12A log2FC (Apoptosis genes, Gene 80149): -1.248 | RNF34 log2FC (Apoptosis genes, Gene 80196): -0.370 | ELL3 log2FC (Apoptosis genes, Gene 80237): 1.045 | CPEB4 log2FC (Apoptosis genes, Gene 80315): 0.553 | COL18A1 log2FC (Apoptosis genes, Gene 80781): 0.023 | SGPP1 log2FC (Apoptosis genes, Gene 81537): -0.248 | SHARPIN log2FC (Apoptosis genes, Gene 81858): -0.118 | APH1B log2FC (Apoptosis genes, Gene 83464): -0.243 | RASSF5 log2FC (Apoptosis genes, Gene 83593): -0.099 | SOX7 log2FC (Apoptosis genes, Gene 83595): -0.149 | BCL2L12 log2FC (Apoptosis genes, Gene 83596): -0.182 | ITCH log2FC (Apoptosis genes, Gene 83737): 0.449 | CDCA7 log2FC (Apoptosis genes, Gene 83879): -0.061 | TATDN1 log2FC (Apoptosis genes, Gene 83940): 0.554 | TM2D1 log2FC (Apoptosis genes, Gene 83941): 0.055 | OBSCN log2FC (Apoptosis genes, Gene 84033): 0.392 | TRAF7 log2FC (Apoptosis genes, Gene 84231): -0.080 | RHBDD1 log2FC (Apoptosis genes, Gene 84236): -0.425 | TCHP log2FC (Apoptosis genes, Gene 84260): 0.283 | ZDHHC16 log2FC (Apoptosis genes, Gene 84287): -0.316 | ING5 log2FC (Apoptosis genes, Gene 84289): -0.961 | AKT1S1 log2FC (Apoptosis genes, Gene 84335): -0.610 | CARD11 log2FC (Apoptosis genes, Gene 84433): 0.185 | SYVN1 log2FC (Apoptosis genes, Gene 84447): 0.495 | ZC3H8 log2FC (Apoptosis genes, Gene 84524): 1.375 | FNDC1 log2FC (Apoptosis genes, Gene 84624): -0.079 | CARD6 log2FC (Apoptosis genes, Gene 84674): 0.035 | HINT2 log2FC (Apoptosis genes, Gene 84681): 0.122 | BEX2 log2FC (Apoptosis genes, Gene 84707): 0.833 | TNS4 log2FC (Apoptosis genes, Gene 84951): -1.157 | ATG4D log2FC (Apoptosis genes, Gene 84971): -0.288 | SCRT2 log2FC (Apoptosis genes, Gene 85508): -0.600 | WNT3A log2FC (Apoptosis genes, Gene 89780): -0.352 | FGD3 log2FC (Apoptosis genes, Gene 89846): 0.895 | UNC5A log2FC (Apoptosis genes, Gene 90249): -0.397 | BMF log2FC (Apoptosis genes, Gene 90427): 2.201 | MTDH log2FC (Apoptosis genes, Gene 92140): 0.308 | TIMM50 log2FC (Apoptosis genes, Gene 92609): -0.337 | TP53INP1 log2FC (Apoptosis genes, Gene 94241): 0.890 | EGLN2 log2FC (Apoptosis genes, Gene 112398): 0.419 | EGLN3 log2FC (Apoptosis genes, Gene 112399): -0.441 | PNMA5 log2FC (Apoptosis genes, Gene 114824): 0.611 | SLC5A11 log2FC (Apoptosis genes, Gene 115584): 0.170 | TWIST2 log2FC (Apoptosis genes, Gene 117581): -0.613 | RFFL log2FC (Apoptosis genes, Gene 117584): -0.445 | FGD4 log2FC (Apoptosis genes, Gene 121512): 0.646 | RXFP2 log2FC (Apoptosis genes, Gene 122042): -0.012 | DCUN1D3 log2FC (Apoptosis genes, Gene 123879): -0.855 | ACVR1C log2FC (Apoptosis genes, Gene 130399): 0.413 | IL31RA log2FC (Apoptosis genes, Gene 133396): 0.067 | JMY log2FC (Apoptosis genes, Gene 133746): 1.008 | UNC5D log2FC (Apoptosis genes, Gene 137970): 0.036 | DYNLL2 log2FC (Apoptosis genes, Gene 140735): -0.654 | PSMA8 log2FC (Apoptosis genes, Gene 143471): 0.074 | TICAM1 log2FC (Apoptosis genes, Gene 148022): -0.334 | BNIPL log2FC (Apoptosis genes, Gene 149428): -0.016 | ZSWIM2 log2FC (Apoptosis genes, Gene 151112): -0.00651 | DAB2IP log2FC (Apoptosis genes, Gene 153090): 0.029 | SLC5A8 log2FC (Apoptosis genes, Gene 160728): -0.019 | PTCRA log2FC (Apoptosis genes, Gene 171558): -0.229 | HIGD2A log2FC (Apoptosis genes, Gene 192286): -0.188 | FLCN log2FC (Apoptosis genes, Gene 201163): 0.778 | HIPK1 log2FC (Apoptosis genes, Gene 204851): -0.082 | UNC5B log2FC (Apoptosis genes, Gene 219699): -0.706 | RNF152 log2FC (Apoptosis genes, Gene 220441): -0.049 | FGD2 log2FC (Apoptosis genes, Gene 221472): -0.083 | MPV17L log2FC (Apoptosis genes, Gene 255027): -0.431 | TMEM23 log2FC (Apoptosis genes, Gene 259230): 0.281 | MAGI3 log2FC (Apoptosis genes, Gene 260425): 0.313 | BLOC1S2 log2FC (Apoptosis genes, Gene 282991): 0.288 | NRBP2 log2FC (Apoptosis genes, Gene 340371): -0.00243 | NANOS3 log2FC (Apoptosis genes, Gene 342977): 0.015 | AMIGO2 log2FC (Apoptosis genes, Gene 347902): 0.458 | C6orf120 log2FC (Apoptosis genes, Gene 387263): -0.573 | GDF6 log2FC (Apoptosis genes, Gene 392255): -0.024 | MYO18A log2FC (Apoptosis genes, Gene 399687): -0.274 | PRAMEF3 log2FC (Apoptosis genes, Gene 401940): -0.384 | ADIPOQ log2FC (Apoptosis genes, Gene 414149): -0.263 | PIM3 log2FC (Apoptosis genes, Gene 415116): 0.644 | LGALS7 log2FC (Apoptosis genes, Gene 653499): -0.246 | CARD9 log2FC (Apoptosis genes, Gene 728489): -0.430 | PDCD6 log2FC (Apoptosis genes, Gene 728613): -0.273 | RRN3 log2FC (Apoptosis genes, Gene 730092): 0.522 | CD24 log2FC (Apoptosis genes, Gene 100133941): 0.117 | ACVR1 log2FC (Gene 90, cell cycle genes): 0.55 | ACVR1B log2FC (Gene 91, cell cycle genes): -0.21 | ADCYAP1 log2FC (Gene 116, cell cycle genes): 0.0422 | AHR log2FC (Gene 196, cell cycle genes): 0.78 | AIF1 log2FC (Gene 199, cell cycle genes): -0.0247 | AK1 log2FC (Gene 203, cell cycle genes): -0.25 | AKT1 log2FC (Gene 207, cell cycle genes): -0.58 | AKT2 log2FC (Gene 208, cell cycle genes): -0.41 | ALOX15B log2FC (Gene 247, cell cycle genes): -0.00234 | ANK3 log2FC (Gene 288, cell cycle genes): 0.62 | ANXA1 log2FC (Gene 301, cell cycle genes): 0.80 | ANXA11 log2FC (Gene 311, cell cycle genes): -0.16 | APBB1 log2FC (Gene 322, cell cycle genes): 0.36 | APBB2 log2FC (Gene 323, cell cycle genes): -0.18 | APEX1 log2FC (Gene 328, cell cycle genes): 0.12 | BIRC2 log2FC (Gene 329, cell cycle genes): -0.34 | APP log2FC (Gene 351, cell cycle genes): 0.33 | ARF6 log2FC (Gene 382, cell cycle genes): -0.57 | RHOB log2FC (Gene 388, cell cycle genes): -0.10 | RHOC log2FC (Gene 389, cell cycle genes): -0.37 | ARL2 log2FC (Gene 402, cell cycle genes): 0.09 | ARL3 log2FC (Gene 403, cell cycle genes): 0.06 | ASNS log2FC (Gene 440, cell cycle genes): -0.39 | BACH1 log2FC (Gene 571, cell cycle genes): 0.78 | BARD1 log2FC (Gene 580, cell cycle genes): 0.34 | BBS4 log2FC (Gene 585, cell cycle genes): 0.84 | CCND1 log2FC (Gene 595, cell cycle genes): -1.53 | BCL2 log2FC (Gene 596, cell cycle genes): -0.34 | BCL2L1 log2FC (Gene 598, cell cycle genes): -0.92 | BCR log2FC (Gene 613, cell cycle genes): -0.81 | BID log2FC (Gene 637, cell cycle genes): -0.26 | BMP2 log2FC (Gene 650, cell cycle genes): -0.23 | BMP7 log2FC (Gene 655, cell cycle genes): -0.32 | DST log2FC (Gene 667, cell cycle genes): 0.55 | BRCA1 log2FC (Gene 672, cell cycle genes): 0.74 | BRDT log2FC (Gene 676, cell cycle genes): -0.0232 | BUB1 log2FC (Gene 699, cell cycle genes): 0.59 | CALM1 log2FC (Gene 801, cell cycle genes): 0.07 | CALR log2FC (Gene 811, cell cycle genes): -0.16 | CAMK2A log2FC (Gene 815, cell cycle genes): 0.03 | CAMK2D log2FC (Gene 817, cell cycle genes): 0.78 | CAMK2G log2FC (Gene 818, cell cycle genes): 0.66 | CASP2 log2FC (Gene 835, cell cycle genes): -0.76 | CAV2 log2FC (Gene 858, cell cycle genes): 0.93 | RUNX3 log2FC (Gene 864, cell cycle genes): -0.36 | CCNA2 log2FC (Gene 890, cell cycle genes): -0.08 | CCNB1 log2FC (Gene 891, cell cycle genes): -0.13 | CCNC log2FC (Gene 892, cell cycle genes): -0.10 | CCND2 log2FC (Gene 894, cell cycle genes): -1.30 | CCND3 log2FC (Gene 896, cell cycle genes): -0.73 | CCNE1 log2FC (Gene 898, cell cycle genes): -0.63 | CCNG1 log2FC (Gene 900, cell cycle genes): 0.46 | CCNG2 log2FC (Gene 901, cell cycle genes): 3.91 | CD28 log2FC (Gene 940, cell cycle genes): 0.0361 | CDC5L log2FC (Gene 988, cell cycle genes): 0.88 | CDC6 log2FC (Gene 990, cell cycle genes): -0.98 | CDC20 log2FC (Gene 991, cell cycle genes): -0.31 | CDC25A log2FC (Gene 993, cell cycle genes): -2.03
